Data on 29 compounds can be found in US20240132464A1, “HETEROCYCLIC COMPOUNDS AS E3 LIGASE INHIBITORS” (Accutar Biotechnology Inc., priority 2022, published 2024).

Where only a bound is given, the exact number is not on record here.

The assay has as its target T1, GID4 (Uniprot ID: Q81VV7, residues 124-289) (Homo sapiens, UniProt Q8IVV7).
T1 construct: GID4 (Uniprot ID: Q81VV7, residues 124-289)
T1 sequence (Q8IVV7 124-289): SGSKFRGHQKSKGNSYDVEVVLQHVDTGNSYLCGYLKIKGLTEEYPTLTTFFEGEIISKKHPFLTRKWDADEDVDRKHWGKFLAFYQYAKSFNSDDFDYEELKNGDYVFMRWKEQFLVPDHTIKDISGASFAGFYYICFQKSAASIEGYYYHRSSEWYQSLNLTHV
Nature of the assay: GID4 competitive binding assay (AlphaScreen, GID4/degron peptide PGLW). Particulars: 24 nM GID4, 48 nM biotinylated degron peptide PGLW, 4° C., read-out: IC50 (Inhibition of GID4/Degron binding by test compounds). As for the experimental part:
GID4 Competitive Binding Assay
GID4 binding affinity of compounds disclosed herein was measured by monitoring the interaction of GID4 with its degron peptide (PGLW) in the presence of the test compounds. A truncated version of GID4 (Uniprot ID: Q81VV7, residues 124-289) with a 6*His at its C-terminus was used in this assay. Tetrapeptide, PGLW, was synthesized and tagged with an additional lysine labeled with biotin at its sidechain.
GID4 competitive binding assays were performed in a 384-well plate at 4° C. in a 20 μL reaction volume. Briefly, 24 nM GID4 (final concentration) proteins were pre-incubated with 48 nM biotinylated degron peptide (final concentration) in an assay buffer containing 20 mM HEPES, pH 7.5, 100 mM NaCl, 1 mM DTT, 0.1% Tween-20, and 0.05% BSA in the presence of the test compound in 2% DMSO (final concentration) at various concentrations for 2 h. 5 ug/ml Streptavidin ALphaScreen donor beads and 5 ug/ml nickel chelate (Ni-NTA) ALphaScreen acceptor beads (PerkinElmer, 6760619C) (final concentrations) were then added to the mixture. After an incubation of 1 h at 4° C., the fluorescent signals were obtained on the EnVision® 2105 Multilabel Plate Reader (PerkinElmer).
Raw ALphaScreen data were converted to a percentage of inhibition (relative to DMSO) using the following equations: […]
For a given test compound concentration X:
Signal (X)=Signal (GID4 & peptide & compound)−Signal (GID4 & buffer & compound)
Percentage of inhibition at concentration X=[1−Signal(X)/Signal (DMSO)]*100% b)
The IC50 values were determined by nonlinear regression of plots of [inhibitor] vs. percentage of inhibition with variable slope.
Table 3 summarizes the inhibition of binding between GID4 and degron peptide with compounds of the present disclosure. Compounds were ranked into bins as follows for IC50: A indicates <500 nM; B indicates 500 nM-5000 nM; C indicates >5000 nM.
(Alpha assays give light when donor and acceptor beads are brought close together.)
On to `CN(C)CCCNC(=O)c1ncc(-c2cc(O)c3ncccc3c2)[nH]1` [Compound 275, N-(3-(dimethylamino)propyl)-5-(8-hydroxyquinolin-6-yl)-1H-imidazole-2-carboxamide], for which the IC50 was below 0.5 µM. With `CC(C)Nc1nc(C(C)C)cc(N2CCNC(c3ccccc3Br)C2)n1` (single isomer, unassigned) [Compound 151, (R/S)-4-(3-(2-bromophenyl)piperazin-1-yl)-N,6-diisopropylpyrimidin-2-amine], the IC50 is above 5 µM. For the compound `CC(C)c1cc(N2CCCC(c3cnc4c(F)cc(F)cn34)C2)nc(N)n1` (centres unmarked) [Compound 242, 4-(3-(6,8-difluoroimidazo[1,2-a]pyridin-3-yl)piperidin-1-yl)-6-isopropylpyrimidin-2-amine], the IC50 was 0.5 to 5 µM. Take `CN(C)CCCNC(=O)c1ccc(-c2cc(O)c3ncccc3n2)cc1` [Compound 304, N-(3-(dimethylamino)propyl)-4-(4-hydroxy-1,5-naphthyridin-2-yl)benzamide]: the IC50 fell in the range of 0.5 to 5 µM. For `Cc1c(-c2ccc(C(=O)NCCCN(C)C)cc2)cc(O)c2ncccc12` [Compound 319, N-(3-(dimethylamino)propyl)-4-(8-hydroxy-5-methylquinolin-6-yl)benzamide], the IC50 lay in the range of 0.5 to 5 µM. `CNc1nc(C(C)C)cc(N2CCNC(c3ccccc3Br)C2)n1` (single isomer, unassigned) [Compound 152, (R/S)-4-(3-(2-bromophenyl)piperazin-1-yl)-6-isopropyl-N-methylpyrimidin-2-amine]: the IC50 lay in the range of 0.5 to 5 µM. Consider `Nc1cc(N2CCOC(c3cnc4ccccn34)C2)nc(N)n1` (racemic) [Compound 136, (R/S)-6-(2-(imidazo[1,2-a]pyridin-3-yl)morpholino)pyrimidine-2,4-diamine], for which the IC50 was above 5 µM.

With `CN(C)CCCNC(=O)c1n[nH]c2ccc(-c3ccc4ncnc(N)c4c3)cc12` [Compound 330, 5-(4-aminoquinazolin-6-yl)-N-(3-(dimethylamino)propyl)-1H-indazole-3-carboxamide], the IC50 lay within 0.5 to 5 µM. Then `Nc1cc(N2CCNC(c3cc(C(F)(F)F)ccc3Br)C2)nc(N)n1` (single isomer, unassigned) [Compound 11, (R/S)-6-(3-(2-bromo-5-(trifluoromethyl)phenyl)piperazin-1-yl)pyrimidine-2,4-diamine], with 0.5 to 5 µM; and `Nc1nc2c(c(N3CCCC(c4ccn[nH]4)C3)n1)CCCN2` (centres unmarked) [Compound 187, 4-(3-(1H-pyrazol-5-yl)piperidin-1-yl)-5,6,7,8-tetrahydropyrido[2,3-d]pyrimidin-2-amine], with 0.5 to 5 µM. Then `CNc1cc(N2CCOC(c3ccccc3)C2)nc(N)n1` (single isomer, unassigned) [Compound 108, (R/S)-N4-methyl-6-(2-phenylmorpholino)pyrimidine-2,4-diamine], with above 5 µM; and `CCc1ccccc1C1CN(c2cc(C(C)C)nc(N)n2)CCN1` (centres unmarked) [Compound 168, 4-(3-(2-ethylphenyl)piperazin-1-yl)-6-isopropylpyrimidin-2-amine], with 0.5 to 5 µM. With `CC(C)c1cc(N2CCOC(c3cnc4ccccn34)C2)nc(N)n1` (single isomer, unassigned) [Compound 157, (S/R)-4-(2-(imidazo[1,2-a]pyridin-3-yl)morpholino)-6-isopropylpyrimidin-2-amine], the IC50 was above 5 µM. As to `Nc1nc(NC2CC2)cc(N2CCO[C@@H](c3ccccc3Br)C2)n1` (stereo in doubt) [Compound 98, (S/R)-6-(2-(2-bromophenyl)morpholino)-N4-cyclopropylpyrimidine-2,4-diamine], the IC50 was below 0.5 µM.

For the compound `Nc1cc(N2CCNC(c3cc(N4CCC(CO)CC4)ccc3Br)C2)nc(N)n1` (centres unmarked) [Compound 33, (1-(4-bromo-3-(4-(2,6-diaminopyrimidin-4-yl)piperazin-2-yl)phenyl)piperidin-4-yl)methanol], the IC50 is below 0.5 µM. Then `CNc1nc(N)cc(N2CCNC(c3ccccc3Br)C2)n1` (racemic) [Compound 114, (S/R)-6-(3-(2-bromophenyl)piperazin-1-yl)-N2-methylpyrimidine-2,4-diamine], with below 0.5 µM; and `CC(C)c1cc(N2CCCC(c3ncc4ccccn34)C2)nc(N)n1` (centres unmarked) [Compound 244, 4-(3-(imidazo[1,5-a]pyridin-3-yl)piperidin-1-yl)-6-isopropylpyrimidin-2-amine], with 0.5 to 5 µM; and `Nc1nccc2ccc(-c3ccc4[nH]ncc4c3)cc12` [Compound 361, 7-(1H-indazol-5-yl)isoquinolin-1-amine], with below 0.5 µM. On to `Nc1nc(N2CCO[C@@H](c3ccccc3Br)C2)c2[nH]ccc2n1` (racemic) [Compound 47, (S/R)-4-(2-(2-bromophenyl)morpholino)-5H-pyrrolo[3,2-d]pyrimidin-2-amine], for which the IC50 lay in the range of 0.5 to 5 µM. In the case of `CN(C)CCCNC(=O)c1cccc(-c2ccc3ccnc(N)c3c2)c1` [Compound 348, 3-(1-aminoisoquinolin-7-yl)-N-(3-(dimethylamino)propyl)benzamide], the IC50 is above 5 µM. With `CC(C)c1cc(N2CCNC(c3ccccc3)C2)nc(N)n1` (centres unmarked) [Compound 165, 4-isopropyl-6-(3-phenylpiperazin-1-yl)pyrimidin-2-amine], the IC50 was above 5 µM. Then `Nc1cc(N2CCCC(n3c(=O)[nH]c4ccccc43)C2)nc(N)n1` (centres unmarked) [Compound 257, 1-(1-(2,6-diaminopyrimidin-4-yl)piperidin-3-yl)-1,3-dihydro-2H-benzo[d]imidazol-2-one], with above 5 µM; and `CN1CCN(c2ccc(Br)c(C3CN(c4cc(N)nc(N)n4)CCN3)c2)CC1` (single isomer, unassigned) [Compound 51, R or S 6-(3-(2-bromo-5-(4-methylpiperazin-1-yl)phenyl)piperazin-1-yl)pyrimidine-2,4-diamine], with 0.5 to 5 µM. Turning to `CC(C)c1cc(N2CCCC(c3cnc4ccccn34)C2)ncn1` (racemic) [Compound 148, (R/S)-3-(1-(6-isopropylpyrimidin-4-yl)piperidin-3-yl)imidazo[1,2-a]pyridine], the IC50 is above 5 µM.

On to `CNc1cc(N2CCN[C@@H](c3ccccc3Br)C2)nc(NC)n1` (stereo in doubt) [Compound 130, (S/R)-6-(3-(2-bromophenyl)piperazin-1-yl)-N2,N4-dimethylpyrimidine-2,4-diamine], for which the IC50 is above 5 µM. The figure for `CNc1cc(N2CCN(C)[C@@H](c3ccccc3Br)C2)nc(NC)n1` (stereo in doubt) [Compound 81, (S/R)-6-(3-(2-bromophenyl)-4-methylpiperazin-1-yl)-N2,N4-dimethylpyrimidine-2,4-diamine] is 0.5 to 5 µM.

Regarding `Nc1nc(N2CCOC(c3ccccc3Br)C2)c2cc[nH]c2n1` (single isomer, unassigned) [Compound 39, (R/S)-4-(2-(2-bromophenyl)morpholino)-7H-pyrrolo[2,3-d]pyrimidin-2-amine], the IC50 is above 5 µM. With `CN(C)C1CCN(C(=O)c2n[nH]c3ccc(-c4ccc5ccnc(N)c5c4)cc23)CC1` [Compound 335, (5-(1-aminoisoquinolin-7-yl)-1H-indazol-3-yl)(4-(dimethylamino)piperidin-1-yl)methanone], the IC50 is below 0.5 µM. Turning to `CNc1cc(N2CCCC(c3nnc4ccccn34)C2)nc(N)n1` (centres unmarked) [Compound 180, 6-(3-([1,2,4]triazolo[4,3-a]pyridin-3-yl)piperidin-1-yl)-N4-methylpyrimidine-2,4-diamine], the IC50 is above 5 µM.
